This assay addresses lipid peroxidation in brain phospholipid liposomes (Bos taurus). Nature of the assay: Tested for the inhibition of lipid peroxidation in bovine brain phospholipid liposomes.

In general, IC50 refers to the concentration at which inhibition is half-maximal. Higher therefore signals weaker potency.

SMILES strings stand for the structures.

In the case of `O=C1c2c(O)cccc2C(=Cc2ccccc2)c2cccc(O)c21` [10-benzylidene-1,8-dihydroxyanthracen-9(10H)-one], the IC50 is 8 µM.

Take `CCCC(=O)C1c2cccc(O)c2C(=O)c2c(O)cccc21` [10-Butyryl-1,8-dihydroxy-10H-anthracen-9-one(Butantrone)]: the midpoint of inhibition, the IC50, lay at 4 µM.

Consider `O=C1c2c(O)cccc2C(C(=O)Cc2ccc(O)c(O)c2)c2cccc(O)c21` [10-[2-(3,4-Dihydroxy-phenyl)-acetyl]-1,8-dihydroxy-10H-anthracen-9-one], for which the midpoint of inhibition, the IC50, lay at 1 µM.

`O=C1c2c(O)cccc2C(=Cc2cc(O)c(O)c(O)c2)c2cccc(O)c21` [1,8-Dihydroxy-10-(3,4,5-trihydroxy-benzylidene)-10H-anthracen-9-one] showed an IC50 of 2 µM.

Take `O=C1c2c(O)cccc2C(=Cc2ccc(O)c(O)c2)c2cccc(O)c21` [10-(3,4-dihydroxybenzylidene)-1,8-dihydroxyanthracen-9(10H)-one]: the IC50 came out at 2 µM. That is a single-digit micromolar value.

`O=C1c2c(O)cccc2C(=Cc2ccc([N+](=O)[O-])cc2)c2cccc(O)c21` [1,8-dihydroxy-10-(4-nitrobenzylidene)anthracen-9(10H)-one]: it took 14 µM to reach half-maximal inhibition (IC50). This IC50 lies about 7-fold higher than the previous one.

For `O=C1c2c(O)cccc2C(=Cc2ccc(O)cc2)c2cccc(O)c21` [1,8-Dihydroxy-10-(4-hydroxy-benzylidene)-10H-anthracen-9-one], the IC50 came out at 8 µM.

Source of the values: BindingDB's records for doi:10.1021/jm00077a015 (Universität Regensburg, 1994).
